ChEMBL document CHEMBL1201862, “PubChem BioAssay data set” (2004)
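Exposure lasted 48 hours, with cells grown in 96-well plates and compounds tested at five concentrations. At the GI50, growth is halved.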 Activity calls are given as the source filed them. No stated cut-off is given here; in the data, active = GI50 up to about 1.1 µM and inactive = higher. Where a SMILES comes first, the peptide text is derived from it. [ ]: non-standard residue; d: D form. The star is where a group is joined. ξ: configuration not given here. X38 = O=C(OCc1ccccc1)[C@@H]1CCC[C@H]1N*; Fmoc = O=C(OCC1c2ccccc2-c2ccccc21)*; ξW = NC(Cc1c[nH]c2ccccc12)C(=O)O; ξF = NC(Cc1ccccc1)C(=O)O; Boc = CC(C)(C)OC(=O)*; ξK = NCCCCC(N)C(=O)O; ξT = CC(O)C(N)C(=O)O; tBu = CC(C)(C)*

What was measured:
Assay in all cases: NCI tumour cell line growth inhibition, 48 h
MDA-N = tested on: MDA-N
DLD-1 = tested on: DLD-1
XF498 = tested on: XF498
HOP-18 = tested on: HOP-18
DMS-273 = tested on: DMS-273
LXFL 529 = tested on: LXFL 529
SNB-78 = tested on: SNB-78
DMS-114 = tested on: DMS-114
RXF 631 = tested on: RXF 631

Compound | GI50 (MDA-N) | GI50 (DLD-1) | GI50 (DMS-114) | other results
CN1CCC23c4c5ccc(O)c4OC2c2[nH]c4ccccc4c2CC3(O)C1C5 (stereo unspecified) | 20 µM (inactive) | – | – | –
CO/C(=N\N=C\c1ccccc1F)c1ccncc1 | > 10 µM (inactive) | – | – | –
COC1CC(OC(=O)c2ccccc2)C(OC(=O)c2ccccc2)C(C)O1 (stereo unspecified) | > 100 µM (inactive) | – | – | –
O=c1/c(=C/c2ccccc2[N+](=O)[O-])sc2nnc(-c3ccco3)n12 | – | 29.2 µM (inactive) | 20 µM (inactive) | GI50 (XF498): 18.4 µM (inactive); GI50 (HOP-18): 25.1 µM (inactive); GI50 (DMS-273): 28.7 µM (inactive); GI50 (LXFL 529): 19 µM (inactive); GI50 (SNB-78): 25.7 µM (inactive)
O=c1oc2ccccc2cc1/C=N/N1C(=S)N(c2ccccc2)C(=N\c2ccccc2)/C1=N/c1ccccc1 | 20.5 µM (inactive) | – | – | –
CCOC(=O)Nc1sc2c(c1C#N)CC(C)CC2 (stereo unspecified) | 1.6 µM (inactive) | – | – | –
Clc1ncnc2c1nc(C#Cc1ccccc1)n2C1CCCCO1 (stereo unspecified) | 1.94 µM (inactive) | – | – | –
COc1nc(C(=O)O)c(Cl)c(OC)c1Cl | – | > 100 µM (inactive) | > 100 µM (inactive) | –
COC(=O)c1ccccc1C1CN=NC12Cc1c(C)ccc(C)c1C2=O (stereo unspecified) | > 100 µM (inactive) | – | – | –
CNC(=S)N1CCN(C(C)=O)C1=S | 51.8 µM (inactive) | – | – | –
COc1ccc(C)cc1-c1ccc(-c2cc(C)ccc2OC)o1 | – | > 100 µM (inactive) | > 100 µM (inactive) | GI50 (DMS-273): > 100 µM (inactive); GI50 (LXFL 529): > 100 µM (inactive); GI50 (SNB-78): > 100 µM (inactive); GI50 (RXF 631): > 100 µM (inactive)
C=C(Cl)C(Br)(CBr)CCC(Br)C(C)(C)Br (stereo unspecified) | 7.57 µM (inactive) | – | – | –
O=C1N=C(S)NNC12c1ccccc1-c1ccccc12 | > 10 µM (inactive) | – | – | –
CCOC(=O)C(=O)Nc1ccccc1OCC | – | > 100 µM (inactive) | > 100 µM (inactive) | GI50 (XF498): > 100 µM (inactive); GI50 (HOP-18): > 100 µM (inactive); GI50 (LXFL 529): > 100 µM (inactive); GI50 (SNB-78): > 100 µM (inactive)
COc1cc2c(c(OC)c1OC)C(=O)c1c(O)cc(C)c(OC)c1C2=O | > 100 µM (inactive) | – | – | –
COc1ccc2oc(=O)c(CC=C(C)C)c(O)c2c1C | > 100 µM (inactive) | – | – | –
COc1cc(C2c3cc4c(cc3OC(NN)C2C)OCO4)cc(OC)c1OC (stereo unspecified) | 0.123 µM (active) | – | – | –

Compound | GI50 (MDA-N) | GI50 (DLD-1) | GI50 (DMS-114) | other results
CC(=O)NC1=C(NCCO)C(=O)c2ccccc2C1=O | – | > 50 µM (inactive) | – | GI50 (XF498): > 50 µM (inactive); GI50 (DMS-273): > 50 µM (inactive); GI50 (LXFL 529): > 50 µM (inactive); GI50 (SNB-78): > 50 µM (inactive)
CSC(=S)Nc1cc(C)cc(C)n1 | > 31.6 µM (inactive) | – | – | –
Cc1cc(=O)n2c3c(c4c(cc13)c(CN(C)C)cc(=O)n4C)OC2 | 27.8 µM (inactive) | – | – | –
CC1SC2=NC3=C(c4ccccc4C3=O)C(c3ccc(Cl)cc3)N2C1=O (stereo unspecified) | – | > 100 µM (inactive) | > 100 µM (inactive) | GI50 (XF498): > 100 µM (inactive); GI50 (DMS-273): > 100 µM (inactive); GI50 (LXFL 529): > 100 µM (inactive); GI50 (RXF 631): > 100 µM (inactive)
Clc1ccc(CCNCCNC2(c3cc4ccccc4s3)CCCCC2)cc1Cl | 1.84 µM (inactive) | – | – | –
CC(=O)OCC1OC(n2ccc(=O)[nH]c2=O)C(OC(C)=O)C(OC(C)=O)C1OC(C)=O (stereo unspecified) | – | > 100 µM (inactive) | > 100 µM (inactive) | GI50 (XF498): > 100 µM (inactive); GI50 (HOP-18): > 100 µM (inactive); GI50 (DMS-273): > 100 µM (inactive); GI50 (LXFL 529): > 100 µM (inactive)
COc1ccc(/C=C/C(=O)c2sc(NC(=S)NC(=O)c3ccccc3F)nc2C)cc1OC | – | > 100 µM (inactive) | > 100 µM (inactive) | GI50 (HOP-18): 22.8 µM (inactive); GI50 (DMS-273): > 100 µM (inactive); GI50 (SNB-78): > 100 µM (inactive)
Clc1cccc(Cl)c1C1SCc2nc3cc4ccccc4cc3n21 (stereo unspecified) | > 100 µM (inactive) | – | – | –
COC(=O)c1ccccc1C1CN=NC12Cc1c(ccc(C)c1C)C2=O (stereo unspecified) | > 100 µM (inactive) | – | – | –
O=S(=O)(O)c1ccc2c(/N=N/c3cccc4ccccc34)c(O)ccc2c1 | > 100 µM (inactive) | – | – | –
C=C[C@H]1C=Cc2c(OC)cccc2[C@@H]1COP1(=S)NC(C)C(c2ccccc2)O1 (stereo partly specified) | – | > 100 µM (inactive) | 32.9 µM (inactive) | GI50 (XF498): > 100 µM (inactive); GI50 (HOP-18): > 100 µM (inactive); GI50 (DMS-273): 57.9 µM (inactive); GI50 (LXFL 529): 48.5 µM (inactive); GI50 (SNB-78): > 100 µM (inactive)
COC(=O)[C@@]12C3=NO[C@]1(C(=O)OC)C(O[Si](C)(C)C(C)(C)C)[C@@H](OC(C)=O)[C@@H](OC(C)=O)[C@@H]2[C@@H](OCc1ccccc1)CC3 (stereo partly specified) | – | > 30.5 µM (inactive) | 6.35 µM (inactive) | GI50 (XF498): 15.8 µM (inactive); GI50 (HOP-18): > 100 µM (inactive); GI50 (DMS-273): 6.05 µM (inactive); GI50 (LXFL 529): 4.45 µM (inactive); GI50 (SNB-78): > 96.2 µM (inactive)
C=CCN1C[C@@H](C)N([C@@H](c2ccc(C(=O)N(CC)CC)cc2)c2cccc(OC)c2)C[C@@H]1C | > 100 µM (inactive) | – | – | –
COc1cc(/C=C/c2ccc(Br)cc2)cc(OC)c1OC | – | 6.93 µM (inactive) | 10.4 µM (inactive) | GI50 (XF498): 20.2 µM (inactive); GI50 (HOP-18): 6.61 µM (inactive); GI50 (DMS-273): 4.91 µM (inactive); GI50 (LXFL 529): 16.1 µM (inactive); GI50 (RXF 631): 9.77 µM (inactive)
CC(OC(C)(C)C)C(NC(=O)C(CCCCNC(=O)OC(C)(C)C)NC(=O)C(Cc1c[nH]c2ccccc12)NC(=O)C(Cc1ccccc1)NC(=O)OCC1c2ccccc2-c2ccccc21)C(=O)NC(Cc1ccccc1)C(=O)N[C@@H]1CCC[C@H]1C(=O)OCc1ccccc1 (stereo partly specified) (Fmoc-[ξF][ξW][ξK](Boc)[ξT](tBu)[ξF]-X38) | > 100 µM (inactive) | – | – | –
CC(C)=CCC/C(C)=C/CO [GERANIOL] | > 100 µM (inactive) | – | – | –
